Reference: patent US9181235B2, “Substituted pyridines for modulating the WNT signaling pathway” (NOVARTIS AG, priority 2010, dated 2015)

Test system: Wnt signaling
Assay: Wnt-Luc reporter assay for pathway inhibition of Wnt signaling
Type: cell-based, mouse (TM3 Wnt-Luc) or human (293 Wnt-Luc); not stated which
Details: Wnt-Luc reporter cells co-cultured with L-cell Wnt3a cells, 24 hours, luciferase signal reduced by 50%
Protocol: This example provides a method that is useful for evaluating test compounds for inhibition of Wnt signaling.
Mouse leydig cell TM3 cells (obtained from American Type Culture Collection, ATCC, Manassas, Va.) are cultured in 1:1 mixture of Ham's F12 medium and Dulbecco's modified Eagle's medium (Gibco/Invitrogen, Carlsbad, Calif.) supplemented with 2.5% FBS (Gibco/Invitrogen, Carlsbad, Calif.) and 5% horse serum (Gibco/Invitrogen, Carlsbad, Calif.), 50 unit/mL penicillin and 50 μg/mL of streptomycin (Gibco/Invitrogen, Carlsbad, Calif.) at 37° C. with 5% CO2 in air atmosphere. TM3 cells in a 10 cm dish are co-transfected with 8 μg of STF-reporter plasmid containing a luciferase gene driven by Wnt-responsive elements and 2 μg of pcDNA3.1-Neo (Gibco/Invitrogen, Carlsbad, Calif.) with 30 μL of FuGENE6 (Roche Diagnostics, Indianapolis, Ind.) following the manufacturer's protocol. Stable cell lines (TM3 Wnt-Luc) were selected with 400 μg/mL of G418 (Gibco/Invitrogen, Carlsbad, Calif.). The TM3 Wnt-Luc cells and L-cell Wnt3a cells (obtained from American Type Culture Collection, ATCC, Manassas, Va.; cultured in Dulbecco's modified Eagle's medium (Gibco/Invitrogen, Carlsbad, Calif.) supplemented with 10% FBS (Gibco/Invitrogen, Carlsbad, Calif.) and 50 unit/mL penicillin and 50 μg/mL of streptomycin (Gibco/Invitrogen, Carlsbad, Calif.) at 37° C. with 5% CO2 in air atmosphere) are trypsinized and co-cultured into a 384-well plate with DMEM medium supplemented with 2% FBS, and treated with different concentrations of a compound of the invention. After 24 hours, the firefly luciferase activities are assayed with the Bright-Glo™ Luciferase Assay System (Promega, Madison, Wis.). The IC50 is measured when the effect of the compound reduces the luminescence signal by 50%.
This example provides another method that is useful for evaluating test compounds for inhibition of Wnt signaling.
Human embryonic kidney 293 cells (obtained from American Type Culture Collection, ATCC, Manassas, Va.) are cultured in DMEM medium (Gibco/Invitrogen, Carlsbad, Calif.) supplemented with 10% FBS (Gibco/Invitrogen, Carlsbad, Calif.), 50 unit/mL penicillin and 50 μg/mL of streptomycin (Gibco/Invitrogen, Carlsbad, Calif.) at 37° C. with 5% CO2 in air atmosphere. 293 cells in a 10 cm dish are co-transfected with 8 μg of STF-reporter plasmid containing a luciferase gene driven by Wnt-responsive elements and 2 μg of pcDNA3.1-Neo (Gibco/Invitrogen, Carlsbad, Calif.) with 30 μL of FuGENE6 (Roche Diagnostics, Indianapolis, Ind.) following the manufacturer's protocol. Stable cell lines (293 Wnt-Luc) were selected with 400 μg/mL of G418 (Gibco/Invitrogen, Carlsbad, Calif.). The 293 Wnt-Luc cells and L-cell Wnt3a cells (obtained from American Type Culture Collection, ATCC, Manassas, Va.) are trypsinized and co-cultured into a 384-well plate with DMEM medium supplemented with 2% FBS, and treated with different concentrations of a compound of the invention. After 24 hours, the firefly luciferase activities are assayed with the Bright-Glo™ Luciferase Assay System (Promega, Madison, Wis.). The IC50 is measured when the effect of the compound reduces the luminescence signal by 50%.

| Compound | IC50 [nM] |
| --- | --- |
| Cc1ccc(F)cc1-c1ccc(C(=O)NCc2ccc(-c3ccnc(C(F)(F)F)c3)nc2)nc1 [compound 65, 5-(5-fluoro-2-methylphenyl)-N-({6-[2-(trifluoromethyl)pyridin-4-yl]pyridin-3-yl}methyl)pyridine-2-carboxamide] | 5.8 |
| Cc1cc(-c2ccc(CNC(=O)c3ccn(-c4cccc(F)c4)c(=O)c3)cn2)ccn1 [compound 89, 1-(3-Fluorophenyl)-N-((2′-methyl-[2,4′-bipyridin]-5-yl)methyl)-2-oxo-1,2-dihydropyridine-4-carboxamide] | 12.5 |
| O=C(NCc1ccc(N2CCS(=O)(=O)CC2)nc1)c1ccc(-c2cnccn2)cn1 [compound 68, N-((6-(1,1-dioxidothiomorpholino)pyridin-3-yl)methyl)-5-(pyrazin-2-yl)picolinamide] | 38 |
| CC(=O)N1CCN(c2ccc(C(=O)NCc3cnc(-c4ccnc(C)c4)c(F)c3)nc2)CC1 [compound 62, 5-(4-acetylpiperazin-1-yl)-N-{[5-fluoro-6-(2-methylpyridin-4-yl)pyridin-3-yl]methyl}pyridine-2-carboxamide] | 11.8 |
| Cc1cc(-c2ncc(CNC(=O)c3ccn(-c4cccc(F)c4)c(=O)c3)cc2C)ccn1 [compound 88, 1-(3-fluorophenyl)-N-{[5-methyl-6-(2-methylpyridin-4-yl)pyridin-3-yl]methyl}-2-oxo-1,2-dihydropyridine-4-carboxamide] | 4.4 |
| O=C(NCc1ccn(-c2ccnc(C(F)(F)F)c2)c(=O)c1)c1ccc(-c2cnccn2)cn1 [compound 56, N-((2-oxo-1-(2-(trifluoromethyl)pyridin-4-yl)-1,2-dihydropyridin-4-yl)methyl)-5-(pyrazin-2-yl)picolinamide] | 34 |
| Cc1cc(-c2ncc(CNC(=O)c3ccc(-c4cc(F)ccc4C)cn3)cc2F)ccn1 [compound 76, 5-(5-fluoro-2-methylphenyl)-N-{[5-fluoro-6-(2-methylpyridin-4-yl)pyridin-3-yl]methyl}pyridine-2-carboxamide] | 1.2 |
| O=C(NCc1ccc(-c2cccnc2)cc1)c1ccc(-c2ccccc2)cc1 [compound 10, N-(4-(pyridin-3-yl)benzyl)biphenyl-4-carboxamide] | 12.5 |
| O=C(NCC1CN(C(=O)c2ccnc(F)c2)C1)c1ccc(-c2cccc(F)c2)nc1 [compound 94, 6-(3-fluorophenyl)-N-({1-[(2-fluoropyridin-4-yl)carbonyl]azetidin-3-yl}methyl)pyridine-3-carboxamide] | 290 |
| Cc1cc(-c2ccc(CNC(=O)c3ccc(-c4cccc(N(C)C)c4)cn3)cn2)ccn1 [compound 29, 5-[3-(dimethylamino)phenyl]-N-{[6-(2-methylpyridin-4-yl)pyridin-3-yl]methyl}pyridine-2-carboxamide] | 43 |

Compounds with a lower IC50, results first:

| IC50 [nM] | Compound |
| --- | --- |
| 0.9 | O=C(NCc1ccc(N2CCS(=O)(=O)CC2)nc1)c1ccc(-c2cccc(F)c2)cn1 [compound 6, 5-(3-Fluorophenyl)-N-((6-(1,1-dioxide-thiomorpholino)pyridin-3-yl)methyl)picolinamide] |
| 0.26 | Cc1cc(-c2ncc(CNC(=O)c3ccc(-c4cnccn4)cn3)cc2F)ccn1 [compound 60, N-{[5-fluoro-6-(2-methylpyridin-4-yl)pyridin-3-yl]methyl}-5-(pyrazin-2-yl)pyridine-2-carboxamide] |
| 0.24 | COC(=O)N1CCN(c2ccc(C(=O)NCc3cnc(-c4ccnc(C(F)(F)F)c4)c(F)c3)nc2)CC1 [compound 49, Methyl 4-(6-((3-fluoro-2′-(trifluoromethyl)-2,4′-bipyridin-5-yl)methylcarbamoyl)pyridin-3-yl)piperazine-1-carboxylate] |
| 0.2 | Cc1cc(-c2ccc(CNC(=O)c3ccc(-c4ccccc4)cn3)cc2)ccn1 [compound 11, N-{[4-(2-methylpyridin-4-yl)phenyl]methyl}-5-phenylpyridine-2-carboxamide] |
| 0.01 | Cc1cc(-c2ccc(CNC(=O)c3ccc(-c4cncnc4)cc3)cc2F)ccn1 [compound 15, N-(3-fluoro-4-(2-methylpyridin-4-yl)benzyl)-4-(pyrimidin-5-yl)benzamide] |
